How the values were obtained:
[1] = system: Staphylococcus aureus (ATCC #6538); assay: Minimum Inhibitory Concentration (MIC), autodilutor, nutrient broth, 96 well plates (Example 8); format: cell-based; conditions: Staphylococcus aureus, ATCC6538; 72 hours at 32 degree Celsius, approximately 10^6 cfu/g, visual turbidity; read-out: MIC for S. Aureus
Description: The Minimum Inhibitory Concentration (MIC) of the preservative mixtures was tested. The MIC is the lowest concentration of an ingredient that will inhibit the growth of an organism. This study was conducted using the Hamilton Micro Lab AT Plus Autodilutor Liquid handling System. The programs for the auto-dilutor were based on Lonza's Standard Application Method SAPM#412-01-1. The Hamilton Autodilutor was used to dilute the starting concentrations of the preservative combination by 50% using nutrient broth in 96 well micro titer plates and also to inoculate the microorganism in the test samples. This preservatives tested were Isocil™ (a blend of methyl isothiazolinone and methyl-chloro-isothiazolinone), Benzocil™ (benzisothiazolinone) and Lonzagard™ (benzethonium chloride), all of which are available from Lonza Inc. of Fair Lawn, N.J., in various concentrations and combinations with cinnamaldehyde. Controls were also included in each test plate. […] Results were determined by checking for growth in the test samples versus the control wells on each plate (visual determination of turbidity in the wells). […] Synergism values for the Isocil™/cinnamaldehyde and Benzocil™/cinnamaldehyde combinations were calculated from the MIC values reported in Table 11 by the method described in Kull, supra, referred to above, and are set forth in Tables 12 and 13, below.

[2] = system: Candida albicans and Aspergillus niger; assay: Mixed fungal challenge of preserved anionic protein shampoo (Example 5); format: cell-based
Description: Each anionic shampoo sample in Table 4 below was tested as follows. A standard mixed […] solution was prepared according to the following procedure. 2 agar […] of Candida albicans and 4 agar […] of Aspergillus niger were separately incubated at about 25 EC for about 48 hours and 7 days, respectively. Each slant was washed with 3 mL of sterile 0.85% saline solution, collected and macerated in a tissue grinder. Sufficient amounts of 0.85% saline solution were added to each slant to obtain a visual count under a microscope with a Neubauer Hemocytometer of each innoculum of C. albicans and A. niger. Equal volumes of each standardized innoculum of C. albicans and A. niger were mixed together to form the standardized mixed fungal solution. 40 g of each shampoo sample was inoculated with 0.4 mL of the standardized mixed fungal solution and mixed. 1 g of the mixture was added to a sterile 20×150 mm screw cap test tube. 9 mL of sterile D/E neutralizer broth was added to the test tube and mixed to form a 10^-1 dilution. Serial dilutions were prepared through to a 10^-6 dilution with phosphate buffered water. The serial dilutions were plated onto Sabourand dextrose agar and incubated 5 days at about 25 EC. […] The anionic protein shampoo composition is described in Example 4. The shampoo samples were prepared by mixing the appropriate amounts of the preservatives and the anionic protein shampoo composition and heating the mixture to about 50 EC for about 15 minutes.

## O=CC=Cc1ccccc1 [Cinnamaldehyde, cinnamaldehyde]
[1]
  MIC: 125 µg/mL
[2]; 0.05% in shampoo
  Fungal Plate Count Day 0: 1.0 × 10^5 cfu/g
  Fungal Plate Count Day 7: 8.0 × 10^3 cfu/g
  Fungal Plate Count Day 14: <10 cfu/g
[2]; 0.10% in shampoo
  Fungal Plate Count Day 0: 1.0 × 10^5 cfu/g
  Fungal Plate Count Day 7: 3.0 × 10^1 cfu/g
  Fungal Plate Count Day 14: <10 cfu/g
[2]; 0.20 in shampoo
  Fungal Plate Count Day 0: 1.0 × 10^5 cfu/g
  Fungal Plate Count Day 7: <10 cfu/g
  Fungal Plate Count Day 14: <10 cfu/g
